From the supplement of paper PMC11061612

Assays:
Assay in all cases: combination Emax (second highest fraction inhibited in the dose matrix, 72 h); higher = more inhibition; extreme values may be limits of the assay
[1] = system: HLE (Hepatocellular Carcinoma)
Procedure, shortened: (§1)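 Cell lines grown in DMEM/F12 or RPMI with 10% FBS were plated in 1536-well plates and held 24 hours at 37°C, 5% CO2 before 72 hours of exposure to two-drug dose matrices, with DMSO typically at 0.2%. CellTiter-Glo 2.0 luminescence gave viability, which was converted to inhibition. Vehicle wells were set to 0 and blank wells to 1. Combination Emax is the second-highest inhibition in the matrix, and Bliss excess is the observed combination effect minus the expected EA + EB − EA·EB, where EA and EB are the single-agent effects.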

[2] = system: SK-LMS-1 (Other Solid Carcinomas)
Procedure, shortened: as §1

[3] = system: WSU-DLCL2 (B-Cell Non-Hodgkin's Lymphoma)
Procedure, shortened: as §1

[4] = system: SW948 (Colorectal Carcinoma)
Procedure, shortened: as §1

[5] = system: SLVL (B-Cell Non-Hodgkin's Lymphoma)
Procedure, shortened: as §1

MSTO-211H (Mesothelioma) = system: MSTO-211H (Mesothelioma)
Procedure, shortened: as §1

HCC38 (Breast Carcinoma) = system: HCC38 (Breast Carcinoma)
Procedure, shortened: as §1

SK-MEL-1 (Melanoma) = system: SK-MEL-1 (Melanoma)
Procedure, shortened: as §1

[6] = system: HCT-116 (Colorectal Carcinoma)
Procedure, shortened: as §1

CS1 (Chondrosarcoma) = system: CS1 (Chondrosarcoma)
Procedure, shortened: as §1

EW-22 (Ewing's Sarcoma) = system: EW-22 (Ewing's Sarcoma)
Procedure, shortened: as §1

D-392MG (Glioblastoma) = system: D-392MG (Glioblastoma)
Procedure, shortened: as §1

[7] = system: D-283MED (Other Solid Carcinomas)
Procedure, shortened: as §1

H4 (Low Grade Glioma) = system: H4 (Low Grade Glioma)
Procedure, shortened: as §1

[8] = system: BICR78 (Oral Cavity Carcinoma)
Procedure, shortened: as §1

[9] = system: SNG-M (Endometrial Carcinoma)
Procedure, shortened: as §1

[10] = system: SK-UT-1 (Other Solid Carcinomas)
Procedure, shortened: as §1

[11] = system: MEG-01 (Chronic Myelogenous Leukemia)
Procedure, shortened: as §1

Saos-2 (Osteosarcoma) = system: Saos-2 (Osteosarcoma)
Procedure, shortened: as §1

[12] = system: TC-YIK (Other Solid Carcinomas)
Procedure, shortened: as §1

Row | Compound | combination Emax [1] | combination Emax [2] | combination Emax [3] | combination Emax [4] | combination Emax [5] | combination Emax (MSTO-211H (Mesothelioma)) | combination Emax (HCC38 (Breast Carcinoma)) | combination Emax (SK-MEL-1 (Melanoma)) | combination Emax [6] | combination Emax (CS1 (Chondrosarcoma)) | combination Emax (EW-22 (Ewing's Sarcoma)) | combination Emax (D-392MG (Glioblastoma)) | combination Emax [7] | combination Emax (H4 (Low Grade Glioma)) | combination Emax [8] | combination Emax [9] | combination Emax [10] | combination Emax [11] | combination Emax (Saos-2 (Osteosarcoma)) | combination Emax [12]
1 | C[C@@H]1COCCN1c1cc(C2([S@](C)(=N)=O)CC2)nc(-c2ccnc3[nH]ccc23)n1 [AZD6738] + C1CC(C1)(C(=O)[O-])C(=O)[O-].N.N.[Pt+2] [Carboplatin] (first compound max 10 µM, 7x7, partner max 10 µM) | 0.458 | 0.448 | 0.767 | 0.566 | 0.659 | 0.45 | 0.52 | 0.32 | 0.664 | 0.548 | 0.851 | 0.423 | 0.996 | 0.708 | 0.58 | 0.89 | 0.779 | 0.923 | 0.544 | 0.802
2 | CN(CCO)CC[C@H](CSc1ccccc1)Nc1ccc(S(=O)(=O)NC(=O)c2ccc(N3CCC([C@@H](O)c4ccccc4-c4ccc(Cl)cc4)CC3)cc2)cc1S(=O)(=O)C(F)(F)F [AZD4320] + CS(=O)(=O)CCNCc1ccc(-c2ccc3ncnc(Nc4ccc(OCc5cccc(F)c5)c(Cl)c4)c3c2)o1 [Lapatinib] (first compound max 1 µM, 7x7, partner max 10 µM) | 0.945 | 0.817 | 0.967 | 0.96 | 0.98 | 0.952 | 0.913 | 0.808 | 0.796 | 0.937 | 0.971 | 0.492 | 0.988 | 0.93 | 0.456 | 0.92 | 0.906 | 0.986 | 0.746 | 1
3 | CC1(C)CCC(CN2CCN(c3ccc(C(=O)NS(=O)(=O)c4ccc(NCC5CCOCC5)c([N+](=O)[O-])c4)c(Oc4cnc5[nH]ccc5c4)c3)CC2)=C(c2ccc(Cl)cc2)C1 [Venetoclax] + CS(=O)(=O)CCNCc1ccc(-c2ccc3ncnc(Nc4ccc(OCc5cccc(F)c5)c(Cl)c4)c3c2)o1 [Lapatinib] (first compound max 1 µM, 7x7, partner max 10 µM) | 0.137 | 0.212 | 0.798 | 0.352 | 0.26 | 0.299 | 0.169 | 0.327 | 0.391 | 0.411 | 0.214 | 0.0713 | 0.927 | 0.171 | 0.364 | 0.247 | 0.458 | 0.485 | 0.214 | 0.294
4 | Cc1c2c(nn1C)CSCc1cc(n(C)n1)CSc1cc(c3ccccc3c1)OCCCc1c(C(=O)O)n(C)c3c-2c(Cl)ccc13 [AZD5991] + CC(=O)O[C@H]1C(=O)[C@@]2(C)[C@H]([C@H](OC(=O)c3ccccc3)[C@]3(O)C[C@H](OC(=O)[C@H](O)[C@@H](NC(=O)c4ccccc4)c4ccccc4)C(C)=C1C3(C)C)[C@]1(OC(C)=O)CO[C@@H]1C[C@@H]2O [Paclitaxel] (first compound max 1 µM, 7x7, partner max 3 µM) | 0.825 | 0.919 | 1 | 0.884 | 0.954 | 0.391 | 0.571 | 0.21 | 0.981 | 0.652 | 0.871 | 0.734 | 1 | 0.995 | 0.701 | 1 | 0.884 | 0.881 | 0.961 | 0.928
5 | O=C(c1cc(Cc2n[nH]c(=O)c3ccccc23)ccc1F)N1CCN(C(=O)C2CC2)CC1 [Olaparib] + CC1(C)CCC(CN2CCN(c3ccc(C(=O)NS(=O)(=O)c4ccc(NCC5CCOCC5)c([N+](=O)[O-])c4)c(Oc4cnc5[nH]ccc5c4)c3)CC2)=C(c2ccc(Cl)cc2)C1 [Venetoclax] (first compound max 10 µM, 7x7, partner max 1 µM) | 0.0962 | 0.183 | 0.452 | 0.122 | 0.7 | 0.0774 | 0.179 | 0.151 | 0.384 | 0.15 | 0.921 | 0.114 | 0.666 | 0.267 | 0.108 | 0.179 | 0.162 | 0.109 | 0.249 | 0.403
6 | Cc1c2c(nn1C)CSCc1cc(n(C)n1)CSc1cc(c3ccccc3c1)OCCCc1c(C(=O)O)n(C)c3c-2c(Cl)ccc13 [AZD5991] + CS(=O)(=O)CCNCc1ccc(-c2ccc3ncnc(Nc4ccc(OCc5cccc(F)c5)c(Cl)c4)c3c2)o1 [Lapatinib] (first compound max 1 µM, 7x7, partner max 10 µM) | 0.23 | 0.265 | 1 | 0.26 | 0.341 | 0.193 | 0.366 | 0.37 | 0.382 | 0.506 | 0.41 | 0.104 | 0.986 | 0.484 | 0.445 | 0.177 | 0.485 | 0.557 | 0.497 | 0.26
7 | Cc1cc2ncnn2cc1Nc1ncc2c(n1)n(C1CCOCC1)c(=O)n2C [AZD7648] + COc1cc([C@@H]2c3cc4c(cc3[C@@H](O[C@@H]3O[C@@H]5CO[C@@H](C)O[C@H]5[C@H](O)[C@H]3O)[C@H]3COC(=O)[C@H]23)OCO4)cc(OC)c1O [Etoposide] (first compound max 10 µM, 7x7, partner max 10 µM) | 0.729 | 0.822 | 1 | 0.524 | 0.924 | 0.783 | 0.486 | 0.558 | 0.725 | 0.649 | 0.938 | 0.489 | 0.979 | 0.756 | 0.666 | 0.867 | 0.926 | 0.854 | 0.827 | 0.976
8 | CN(CCO)CC[C@H](CSc1ccccc1)Nc1ccc(S(=O)(=O)NC(=O)c2ccc(N3CCC([C@@H](O)c4ccccc4-c4ccc(Cl)cc4)CC3)cc2)cc1S(=O)(=O)C(F)(F)F [AZD4320] + CC(=O)O[C@H]1C(=O)[C@@]2(C)[C@H]([C@H](OC(=O)c3ccccc3)[C@]3(O)C[C@H](OC(=O)[C@H](O)[C@@H](NC(=O)c4ccccc4)c4ccccc4)C(C)=C1C3(C)C)[C@]1(OC(C)=O)CO[C@@H]1C[C@@H]2O [Paclitaxel] (first compound max 1 µM, 7x7, partner max 3 µM) | 0.93 | 1 | 1 | 0.942 | 1 | 0.881 | 0.77 | 0.623 | 1 | 0.961 | 0.999 | 1 | 1 | 1 | 0.941 | 1 | 0.977 | 0.991 | 0.968 | 1
9 | O=C(c1cc(Cc2n[nH]c(=O)c3ccccc23)ccc1F)N1CCN(C(=O)C2CC2)CC1 [Olaparib] + COc1nnc2ccc(N3CCC(c4ccc(OCCN5CCN(C)C(=O)[C@H]5C)cc4)CC3)nn12 [AZD5153] (first compound max 10 µM, 7x7, partner max 1 µM) | 0.338 | 0.544 | 0.949 | 0.428 | 0.685 | 0.246 | 0.412 | 0.303 | 0.741 | 0.374 | 0.909 | 0.405 | 0.881 | 0.658 | 0.41 | 0.47 | 0.559 | 0.76 | 0.454 | 0.85
10 | C[C@@H](Nc1cc(F)cc(F)c1)c1cc(C(=O)N(C)C)cc2c(=O)cc(N3CCOCC3)oc12 [AZD8186] + C1CN(CCC1(C(=O)N[C@@H](CCO)C2=CC=C(C=C2)Cl)N)C3=NC=NC4=C3C=CN4 [AZD5363] (first compound max 10 µM, 7x7, partner max 10 µM) | 0.144 | 0.494 | 1 | 0.656 | 0.709 | 0.265 | 0.262 | 0.154 | 0.47 | 0.264 | 0.45 | 0.363 | 0.485 | 0.597 | 0.394 | 0.429 | 0.344 | 0.226 | 0.425 | 0.294
11 | C[C@@H](Oc1cc(-c2cnn(C3CCNCC3)c2)cnc1N)c1c(Cl)ccc(F)c1Cl [Crizotinib] + Cn1cnc2c(F)c(Nc3ccc(Br)cc3Cl)c(C(=O)NOCCO)cc21 [Selumetinib] (first compound max 10 µM, 7x7, partner max 10 µM) | 0.365 | 0.78 | 0.596 | 0.899 | 0.742 | 0.576 | 0.0593 | 0.916 | 0.964 | 0.619 | 0.78 | 0.572 | 0.973 | 0.787 | 0.456 | 0.783 | 0.331 | 1 | 0.883 | 0.858
